This is an account of results in US12715849B2, “Herbicidal tetrazole compounds” (SYNGENTA CROP PROTECTION AG, priority 2020, dated 2026).

Each structure is given as a SMILES string.

What all share (test): Glasshouse herbicidal test, pre- and post-emergence (Table B1)
Common to all, as to type: in vivo

In experiment [1] the test system is Setaria faberi (SETFA). To be noted: 130 g/h, evaluated after 13 days; for percentage damage caused to the plant, POST Application SETFA: post-emergence; for percentage damage caused to the plant, PRE Application SETFA: pre-emergence. How it is done: (§1) Seeds of a variety of test species are sown in standard soil in pots (Lolium perenne (LOLPE), Amaranthus retoflexus (AMARE), Amaranthus palmeri (AMAPA), Ablution theophrasti (ABUTH), Setaria faberi (SETFA), Echinochloa crus-galli (ECHCG), Ipomoea hederacea (IPOHE)). After cultivation for one day (pre-emergence) or after 8 days cultivation (post-emergence) under controlled conditions in a glasshouse (at 24/16° C., day/night; 14 hours light; 65% humidity), the plants are sprayed with an aqueous spray solution derived from the formulation of the technical active ingredient in acetone/water (50:50) solution containing 0.5% Tween 20 (polyoxyethelyene sorbitan monolaurate, CAS RN 9005-64-5). Compounds are applied at 130 g/h unless otherwise indicated. The test plants are then grown in a glasshouse under controlled conditions in a glasshouse (at 24/16° C., day/night; 14 hours light; 65% humidity) and watered twice daily. After 13 days for pre and post-emergence, the test is evaluated for the percentage damage caused to the plant. The biological activities are shown in the following table on a five-point scale (5=80-100%; 4=60-79%; 3=40-59%; 2=20-39%; 1=0-19%).

Experiment [2] deals with Echinochloa crus-galli (ECHCG). To be noted: 130 g/h, evaluated after 13 days; for percentage damage caused to the plant, POST Application ECHCG: post-emergence; for percentage damage caused to the plant, PRE Application ECHCG: pre-emergence. How it is done:
as §1

Experiment [3] has as its system Ipomoea hederacea (IPOHE). The note with it: 130 g/h, evaluated after 13 days; for percentage damage caused to the plant, POST Application IPOHE: post-emergence; for percentage damage caused to the plant, PRE Application IPOHE: pre-emergence. The method, then:
as §1

The subject of experiment [4] is Amaranthus retoflexus (AMARE). The note with it: 130 g/h, evaluated after 13 days; for percentage damage caused to the plant, POST Application AMARE: post-emergence; for percentage damage caused to the plant, PRE Application AMARE: pre-emergence. The method, then:
as §1

In experiment [5] the test system is Ablution theophrasti (ABUTH). To be noted: 130 g/h, evaluated after 13 days; for percentage damage caused to the plant, POST Application ABUTH: post-emergence; for percentage damage caused to the plant, PRE Application ABUTH: pre-emergence. The method, then: as §1
Experiment [6] has as its system Amaranthus palmeri (AMAPA). To be noted: 130 g/h, evaluated after 13 days. How it is done: as §1

Consider `CCS(=O)(=O)Nc1c(OC(F)(F)F)ccc(C(=O)Nc2nnnn2C)c1Cl` [Compound 1.003, 2-chloro-3-(ethylsulfonylamino)-N-(1-methyltetrazol-5-yl)-4-(trifluoromethoxy)benzamide], for which, in experiment [1], the “percentage damage caused to the plant, POST Application SETFA” value was 5 (5=80-100%) and the “percentage damage caused to the plant, PRE Application SETFA” value is given as 4 (4=60-79%). For the same molecule, in experiment [2], the “percentage damage caused to the plant, POST Application ECHCG” value is 5 (5=80-100%) and the “percentage damage caused to the plant, PRE Application ECHCG” value is reported as 5 (5=80-100%). For the same molecule, in experiment [3], the “percentage damage caused to the plant, POST Application IPOHE” value is recorded as 5 (5=80-100%) and the “percentage damage caused to the plant, PRE Application IPOHE” value is 4 (4=60-79%). In addition, in experiment [4], the “percentage damage caused to the plant, POST Application AMARE” value was 4 (4=60-79%) and the “percentage damage caused to the plant, PRE Application AMARE” value is 5 (5=80-100%). In experiment [5], the “percentage damage caused to the plant, POST Application ABUTH” value is given as 5 (5=80-100%) and the “percentage damage caused to the plant, PRE Application ABUTH” value is on record as 5 (5=80-100%).
For the molecule `CCn1nnnc1NC(=O)c1ccc(OC(F)(F)F)c(NS(C)(=O)=O)c1Cl` [Compound 1.001], in experiment [1], the “percentage damage caused to the plant, POST Application SETFA” value is on record as 5 (5=80-100%) and the “percentage damage caused to the plant, PRE Application SETFA” value was 3 (3=40-59%). In addition, in experiment [2], the “percentage damage caused to the plant, POST Application ECHCG” value was 5 (5=80-100%) and the “percentage damage caused to the plant, PRE Application ECHCG” value was 5 (5=80-100%). In addition, in experiment [3], the “percentage damage caused to the plant, POST Application IPOHE” value is on record as 5 (5=80-100%) and the “percentage damage caused to the plant, PRE Application IPOHE” value is given as 4 (4=60-79%). Further, in experiment [4], the “percentage damage caused to the plant, POST Application AMARE” value was 4 (4=60-79%) and the “percentage damage caused to the plant, PRE Application AMARE” value is 5 (5=80-100%). Also, in experiment [5], the “percentage damage caused to the plant, POST Application ABUTH” value was 5 (5=80-100%) and the “percentage damage caused to the plant, PRE Application ABUTH” value was 5 (5=80-100%).
On to `CC(C)S(=O)(=O)Nc1c(OC(F)F)ccc(C(=O)Nc2nnnn2C)c1Cl` [Compound 1.013], for which, in experiment [1], the “percentage damage caused to the plant, POST Application SETFA” value is on record as 5 (5=80-100%) and the “percentage damage caused to the plant, PRE Application SETFA” value is reported as 4 (4=60-79%). Also, in experiment [2], the “percentage damage caused to the plant, POST Application ECHCG” value was 5 (5=80-100%) and the “percentage damage caused to the plant, PRE Application ECHCG” value is 5 (5=80-100%). In addition, in experiment [3], the “percentage damage caused to the plant, POST Application IPOHE” value was 5 (5=80-100%) and the “percentage damage caused to the plant, PRE Application IPOHE” value is 5 (5=80-100%). Also, in experiment [4], the “percentage damage caused to the plant, POST Application AMARE” value is 5 (5=80-100%) and the “percentage damage caused to the plant, PRE Application AMARE” value is given as 5 (5=80-100%). Further, in experiment [5], the “percentage damage caused to the plant, POST Application ABUTH” value is listed as 5 (5=80-100%) and the “percentage damage caused to the plant, PRE Application ABUTH” value is on record as 5 (5=80-100%).
In the case of `Cn1nnnc1NC(=O)c1ccc(OC(F)F)c(NS(=O)(=O)C2CC2)c1Cl` [Compound 1.067], in experiment [1], the “percentage damage caused to the plant, POST Application SETFA” value was 5 (5=80-100%) and the “percentage damage caused to the plant, PRE Application SETFA” value is recorded as 3 (3=40-59%). In addition, in experiment [2], the “percentage damage caused to the plant, POST Application ECHCG” value is reported as 5 (5=80-100%) and the “percentage damage caused to the plant, PRE Application ECHCG” value is recorded as 4 (4=60-79%). Also, in experiment [3], the “percentage damage caused to the plant, POST Application IPOHE” value is listed as 5 (5=80-100%) and the “percentage damage caused to the plant, PRE Application IPOHE” value is listed as 4 (4=60-79%). Besides, in experiment [4], the “percentage damage caused to the plant, POST Application AMARE” value is recorded as 4 (4=60-79%) and the “percentage damage caused to the plant, PRE Application AMARE” value is 5 (5=80-100%). Also, in experiment [5], the “percentage damage caused to the plant, POST Application ABUTH” value is given as 5 (5=80-100%) and the “percentage damage caused to the plant, PRE Application ABUTH” value is 5 (5=80-100%).
Regarding `CC(C)CS(=O)(=O)Nc1c(OC(F)(F)F)ccc(C(=O)Nc2nnnn2C)c1Cl` [Compound 1.074], the “percentage damage caused to the plant, POST Application AMAPA” value in experiment [6] (post-emergence) is 5 (5=80-100%). In experiment [6] (pre-emergence), the “percentage damage caused to the plant, PRE Application AMAPA” value is recorded as 5 (5=80-100%). In experiment [1], the “percentage damage caused to the plant, POST Application SETFA” value is reported as 5 (5=80-100%) and the “percentage damage caused to the plant, PRE Application SETFA” value is 3 (3=40-59%). For the same molecule, in experiment [2], the “percentage damage caused to the plant, POST Application ECHCG” value is reported as 5 (5=80-100%) and the “percentage damage caused to the plant, PRE Application ECHCG” value is listed as 4 (4=60-79%). Besides, in experiment [3], the “percentage damage caused to the plant, POST Application IPOHE” value was 5 (5=80-100%) and the “percentage damage caused to the plant, PRE Application IPOHE” value is reported as 3 (3=40-59%). Further, in experiment [4], the “percentage damage caused to the plant, POST Application AMARE” value is listed as 5 (5=80-100%) and the “percentage damage caused to the plant, PRE Application AMARE” value is 5 (5=80-100%).
